Reference: patent US20210127673A1, “HERBICIDES” (SYNGENTA PARTICIPATIONS AG, priority 2016, published 2021)

Experiments:
Format in all cases: in vivo
Conditions in all cases: 1000 g/ha, evaluated after 13 days
[1] = tested on: Triticum aestivium (TRZAW); assay: Post-emergence herbicidal activity, Triticum aestivium; set-up: key: 5=total damage to plant; 0=no damage to plant
Experimental: (§1) Seeds of a variety of test species were sown in standard soil in pots: Triticum aestivium (TRZAW), Avena fatua (AVEFA), Alopecurus myosuroides (ALOMY), Echinochloa crus-galli (ECHCG), Lolium perenne (LOLPE), Zea Mays (ZEAMX), Abutilon theophrasti (ABUTH), Amaranthus retroflexus (AMARE) and Setaria faberi (SETFA). After 8 days cultivation (post-emergence) under controlled conditions in a glasshouse (at 24/16° C., day/night; 14 hours light; 65% humidity), the plants were sprayed with an aqueous spray solution derived from the formulation of the technical active ingredient in acetone/water (50:50) solution containing 0.5% Tween 20 (polyoxyethelyene sorbitan monolaurate, CAS RN 9005-64-5). The test plants were then grown in a glasshouse under controlled conditions (at 24/16° C., day/night; 14 hours light; 65% humidity) and watered twice daily. After 13 days, the test was evaluated (5=total damage to plant; 0=no damage to plant).

Setaria faberi (SETFA) [2] = assay: Pre-emergence herbicidal activity, Setaria faberi; set-up: key: 5=total damage to plant; 0=no damage to plant
Experimental: (§2) Seeds of a variety of test species were sown in standard soil in pots: Triticum aestivium (TRZAW), Avena fatua (AVEFA), Alopecurus myosuroides (ALOMY), Echinochloa crus-galli (ECHCG), Lolium perenne (LOLPE), Zea Mays (ZEAMX), Abutilon theophrasti (ABUTH), Amaranthus retroflexus (AMARE) and Setaria faberi (SETFA). After cultivation for one day (pre-emergence) under controlled conditions in a glasshouse (at 24/16° C., day/night; 14 hours light; 65% humidity), the plants were sprayed with an aqueous spray solution derived from the formulation of the technical active ingredient in acetone/water (50:50) solution containing 0.5% Tween 20 (polyoxyethelyene sorbitan monolaurate, CAS RN 9005-64-5). The test plants were then grown in a glasshouse under controlled conditions (at 24/16°, day/night; 14 hours light; 65% humidity) and watered twice daily. After 13 days, the test was evaluated (5=total damage to plant; 0=no damage to plant).

[3] = tested on: Echinochloa crus-galli (ECHCG); assay: Pre-emergence herbicidal activity, Echinochloa crus-galli
Experimental: as §2

Avena fatua (AVEFA) [4] = assay: Pre-emergence herbicidal activity, Avena fatua; set-up: key: 5=total damage to plant; 0=no damage to plant
Experimental: as §2

Setaria faberi (SETFA) [5] = assay: Post-emergence herbicidal activity, Setaria faberi; set-up: key: 5=total damage to plant; 0=no damage to plant
Experimental: as §1

[6] = tested on: Alopecurus myosuroides (ALOMY); assay: Pre-emergence herbicidal activity, Alopecurus myosuroides; set-up: key: 5=total damage to plant; 0=no damage to plant
Experimental: as §2

[7] = tested on: Triticum aestivium (TRZAW); assay: Pre-emergence herbicidal activity, Triticum aestivium; set-up: key: 5=total damage to plant; 0=no damage to plant
Experimental: as §2

Avena fatua (AVEFA) [8] = assay: Post-emergence herbicidal activity, Avena fatua
Experimental: as §1

[9] = tested on: Echinochloa crus-galli (ECHCG); assay: Post-emergence herbicidal activity, Echinochloa crus-galli; set-up: key: 5=total damage to plant; 0=no damage to plant
Experimental: as §1

Lolium perenne (LOLPE) [10] = assay: Post-emergence herbicidal activity, Lolium perenne
Experimental: as §1

[11] = tested on: Alopecurus myosuroides (ALOMY); assay: Post-emergence herbicidal activity, Alopecurus myosuroides; set-up: key: 5=total damage to plant; 0=no damage to plant
Experimental: as §1

Lolium perenne (LOLPE) [12] = assay: Pre-emergence herbicidal activity, Lolium perenne; set-up: key: 5=total damage to plant; 0=no damage to plant
Experimental: as §2

SMILES	Control of TRAZW after post-emergence application (score 0-5) [1]	Control of SETFA after pre-emergence application (score 0-5) (Setaria faberi (SETFA) [2])	Control of ECHCG after pre-emergence application (score 0-5) [3]	Control of AVEFA after pre-emergence application (score 0-5) (Avena fatua (AVEFA) [4])	Control of SETFA after post-emergence application (score 0-5) (Setaria faberi (SETFA) [5])	Control of ALOMY after pre-emergence application (score 0-5) [6]	Control of TRAZW after pre-emergence application (score 0-5) [7]	Control of AVEFA after post-emergence application (score 0-5) (Avena fatua (AVEFA) [8])	Control of ECHCG after post-emergence application (score 0-5) [9]	Control of LOLPE after post-emergence application (score 0-5) (Lolium perenne (LOLPE) [10])	Control of ALOMY after post-emergence application (score 0-5) [11]	Control of LOLPE after pre-emergence application (score 0-5) (Lolium perenne (LOLPE) [12])
CN(C(=O)OC(C)(C)C)c1ccc(-c2cc(F)c[n+]([O-])c2)nc1C(F)(F)F [Compound B1, tert-butyl N-[6-(5-fluoro-1-oxido-pyridin-1-ium-3-yl)-2-(trifluoromethyl)-3-pyridyl]-N-methyl-carbamate]	0	4	2	2	5	0	0	4	4	2	1	1
O=C1NCCN1c1ccc(-c2cncc(F)c2)nc1C(F)(F)F [Compound B64]	0	2	1	0	4	0	0	3	4	1	0	0
CC#Cc1cncc(-c2ccc(NC(=O)OC(C)(C)C)c(C)n2)c1 [Compound B33]	2	4	2	2	5	0	0	4	2	3	2	1
CC(C)OC(=O)Nc1ccc(-c2cncc(F)c2)nc1C#N [Compound B115]	1	5	4	2	5	0	0	4	5	3	1	0
O=C(Nc1ccc(-c2cncc(F)c2)nc1C(F)(F)F)N1CCSCC1 [Compound B54]	1	3	3	2	4	0	0	4	4	3	1	1
CC(C)(C)OC(=O)Nc1ccc(-c2cncc(C#N)c2)nc1C(F)(F)F [Compound B7]	1	5	2	1	5	0	0	4	4	2	1	1
C=CCN(C(=O)N(C)C)c1ccc(-c2cncc(F)c2)nc1C(F)(F)F [Compound B123]	1	5	3	1	5	0	0	2	3	1	2	1
O=C(Nc1ccc(-c2cncc(F)c2)nc1C(F)(F)F)N1CCCCC1 [Compound B51]	0	5	2	1	5	0	0	3	4	3	0	1
